Data as given in the Biogen ADME set (Fang et al. 2023).
≈ marks a conversion by molar mass, not a printed value.

Conditions: for aqueous solubility: pH 6.8

SMILES	intrinsic clearance, human liver microsomes	intrinsic clearance, rat liver microsomes	aqueous solubility	MDR1-MDCK efflux ratio	fraction unbound, human plasma	fraction unbound, rat plasma
Cc1nccc(-c2cccc(NCC(=O)Nc3ccc(F)cc3)c2)n1	39.1 mL/min/kg	304 mL/min/kg				
CSC1(CNc2cncc(Cl)n2)CCOCC1	10.2 mL/min/kg	528 mL/min/kg				
CCOC(=O)c1ccc(S(=O)(=O)N2CCc3cc(C(=O)OC)ccc32)cc1			0.83 µg/mL (≈ 2.13 µM)			
CC1(C)CC(=O)c2c(C(F)(F)F)nn(-c3ccc(C(N)=O)c(N[C@H]4CC[C@@H](O)CC4)c3)c2C1	47.7 mL/min/kg	108 mL/min/kg		109		
O=S(=O)(NCC1C2CC3CC(C2)CC1C3)C1CCOCC1 (stereo unspecified)			58.2 µg/mL (≈ 186 µM)			
COc1ccc(Nc2c(C#N)cnc3cc(OC)c(OC)cc23)cc1Cl	53.1 mL/min/kg	574 mL/min/kg		3.24	0.00925	0.0131
O=c1c2cccnc2ncn1[C@H]1CCCc2ccccc21	≤ 4.74 mL/min/kg	119 mL/min/kg		0.837		
O=C(Nc1nc2cccc(-c3ccc(CN4CCS(=O)(=O)CC4)cc3)n2n1)C1CC1	≤ 4.74 mL/min/kg	19.4 mL/min/kg	47.1 µg/mL (≈ 111 µM)	136	0.48	0.4
O=C(Nc1ccc(C(F)(F)F)cc1)c1ccccn1	31.9 mL/min/kg	165 mL/min/kg				
Nc1nc2c(N)ncnc2[nH]1			17.8 µg/mL (≈ 119 µM)			
Cc1ccc(OCc2nc3cc(N)ccc3[nH]2)cc1	≤ 4.74 mL/min/kg	49.1 mL/min/kg	16.8 µg/mL (≈ 66.1 µM)			
CC1CCN(CC(=O)Nc2nc(-c3c[nH]c4ccccc34)cs2)CC1	37.9 mL/min/kg	315 mL/min/kg	5.19 µg/mL (≈ 14.6 µM)	0.826		
CNc1ncc2cc(-c3ccc(-c4cccc(C)n4)cc3Cl)c(=O)n(C[C@H]3OC[C@H](N)CO3)c2n1	≤ 4.74 mL/min/kg	170 mL/min/kg				
O=C(Cc1csc(-c2ccccn2)n1)NC1CCCCCC1	87 mL/min/kg	2280 mL/min/kg	11.4 µg/mL (≈ 36.2 µM)	0.945		
O=C1CCC(=O)N1CCN1CCCCc2ccccc21	122 mL/min/kg	1470 mL/min/kg	55.8 µg/mL (≈ 205 µM)	0.651		
O=C(c1ccc(Cl)cc1)N1CCC(c2nnc3n2CCCC3)CC1	≤ 4.74 mL/min/kg	≤ 10.7 mL/min/kg		128		

SMILES	intrinsic clearance, human liver microsomes	intrinsic clearance, rat liver microsomes	aqueous solubility	MDR1-MDCK efflux ratio	fraction unbound, human plasma	fraction unbound, rat plasma
CN(C)CC(C)(C)CNc1cn[nH]c(=O)c1Br	8.54 mL/min/kg	43.9 mL/min/kg		0.676		
CC1(CNC(=O)N2CCN(Cc3ccon3)CC2)CCCC1	7.42 mL/min/kg	308 mL/min/kg		2.07		
COc1ccc(N)c(OCc2ccccc2)c1	103 mL/min/kg	707 mL/min/kg		0.705		
CN(C)c1cccc(C(=O)N2CCCC(c3cccc(-c4cccs4)n3)C2)c1 (stereo unspecified)	499 mL/min/kg	3630 mL/min/kg	2.1 µg/mL (≈ 5.36 µM)	0.647		
CC#CCCNC(=O)c1cccnc1C	≤ 4.74 mL/min/kg	21.5 mL/min/kg		0.755		
Cc1ccc(CCNc2nc(C)cc(C)n2)cn1	12.7 mL/min/kg	192 mL/min/kg				
c1ccc(NCc2ccc3c(c2)OCCCO3)nc1	66.5 mL/min/kg	7100 mL/min/kg		0.701		
O=C(Nc1ccc(Cl)cc1)C(=O)N(C1CCCC1)C1CC1			29.4 µg/mL (≈ 95.8 µM)			
COc1cc2c(cc1OC)CN(CN1C(=O)c3cccc4cccc1c34)CC2	131 mL/min/kg	504 mL/min/kg	53.4 µg/mL (≈ 143 µM)			
Cn1cc(NC(=O)c2cnn3cccnc23)c(C2CCCCC2)n1	37.7 mL/min/kg	188 mL/min/kg		1.23		
CC(C)c1nc(S(=O)(=O)N2CC3(CC3)c3ccccc32)c[nH]1	789 mL/min/kg	3110 mL/min/kg		8.26		
O=C(CCc1cnn(-c2ccccc2)c1)N1CCC(n2c(=O)[nH]c3ccccc32)CC1	567 mL/min/kg	3770 mL/min/kg				
O=C(CCn1cncn1)N(CC#Cc1ccccc1)C1CCCC1	263 mL/min/kg	1350 mL/min/kg	22.5 µg/mL (≈ 69.7 µM)	1.98		
C#CCN1CCC[C@H]1C(=O)Nc1cnn(-c2ncccn2)c1	≤ 4.74 mL/min/kg	83.4 mL/min/kg	45.1 µg/mL (≈ 152 µM)	3.95		
COc1ccc(N2CCCN(CC3CCN(C(=O)C4CC4)CC3)CC2)cc1	5.03 mL/min/kg	50.9 mL/min/kg	59.7 µg/mL (≈ 161 µM)	1.11		
